One assay deals with Lovo cells. In words: Cancer cell proliferation inhibition (Cell Counting Kit-8), colorectal cancer cell line. The following applies: Homo sapiens, LoVo, 264 h, 1000 nM, cultured seven to 11 days; read-out: % inhibition rate LoVo. The assay is classed as cell-based. The method in brief:
(§1)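 Single-concentration growth test: compound at 1000 nM was applied to cells seeded at 100 to 1,000 per well and cultured seven to 11 days. Proliferation was then quantified with Cell Counting Kit-8, and percent inhibition was taken relative to control wells.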
A general note: Tetrazolium dyes change colour on reduction, which living cells bring about.

A further assay deals with MKN-45 cells. In words: Cancer cell proliferation inhibition (Cell Counting Kit-8), gastric cancer cell line. The settings on record: 1000 nM, cultured seven to 11 days; for inhibition at 1 µM: Homo sapiens, MKN-45, 264 h, read-out: % inhibition rate MKN -45. The assay is classed as cell-based. The method in brief:
(§2)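 Cells grown in RPMI1640, McCoy's 5a, L-15 or DMEM with 10% FBS, seeded at 100 to 1,000 cells/well and treated with test substance at 1000 nM for 7 to 11 days. Viability read by CCK-8; % inhibition = {1−(test/control)} × 100.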

In another assay the target is EZH1 (Homo sapiens, UniProt Q92800). In words: AlphaLISA enzyme activity inhibition, EZH1. The assay is classed as biochemical. The following applies: for inhibition at 0.005 µM: 5nM test substance; for inhibition at 0.01 µM: 10nM test substance. The method in brief:
(§3)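 EZH1 or EZH2 was mixed with compound at 5 nM or 10 nM final in 20 mM Tris pH 8.0, 0.1% BSA, 0.5 mM DTT, then histone H3 peptide and SAM were added. After 2 h reaction, AlphaLISA acceptor and donor beads detected methylation; inhibition rate was calculated against DMSO control.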
On the technique in general: Bead proximity is the source of the signal in Alpha formats.

The next assay deals with G401 cells. In words: Cancer cell proliferation inhibition (Cell Counting Kit-8), rhabdoid tumor cell line. The following applies: 1000 nM, cultured seven to 11 days; for inhibition at 1 µM: Homo sapiens, G-401, 264 h, read-out: % inhibition rate G401. The assay is classed as cell-based. The method in brief:
as §2

In a further assay the target is EZH2 (Homo sapiens, UniProt Q15910). In words: AlphaLISA enzyme activity inhibition, EZH2. The assay is classed as biochemical. The settings on record: for inhibition at 0.005 µM: 5nM test substance; for inhibition at 0.01 µM: 10nM test substance. The gist of the method:
as §3

In a further assay the test system is SW-13 cells. In words: Cancer cell proliferation inhibition (Cell Counting Kit-8), adrenal cancer cell line. The assay is classed as cell-based. The following applies: 1000 nM, cultured seven to 11 days; for inhibition at 1 µM: Homo sapiens, SW13, 264 h, read-out: % inhibition rate SW-13. The gist of the method: as §1
The next assay has as its system MIA-PaCa-2 cells. In words: Cancer cell proliferation inhibition (Cell Counting Kit-8), pancreatic cancer cell line. The assay is classed as cell-based. The following applies: 1000 nM, cultured seven to 11 days; for inhibition at 1 µM: Homo sapiens, MIA PaCa-2, 264 h, read-out: % inhibition rate MIA-Paca2. The gist of the method: as §1
A further assay deals with NCI-H1299 cells. In words: Cancer cell proliferation inhibition (Cell Counting Kit-8), lung cancer cell line. The settings on record: Homo sapiens, NCI-H1299, 264 h, 1000 nM, cultured seven to 11 days; read-out: % inhibition rate NCI-H129 9. The assay is classed as cell-based. The gist of the method: as §1

A value given as a limit tells only on which side of the number the result lay.

EZH2, sequence (Q15910 whole entry, species assumed): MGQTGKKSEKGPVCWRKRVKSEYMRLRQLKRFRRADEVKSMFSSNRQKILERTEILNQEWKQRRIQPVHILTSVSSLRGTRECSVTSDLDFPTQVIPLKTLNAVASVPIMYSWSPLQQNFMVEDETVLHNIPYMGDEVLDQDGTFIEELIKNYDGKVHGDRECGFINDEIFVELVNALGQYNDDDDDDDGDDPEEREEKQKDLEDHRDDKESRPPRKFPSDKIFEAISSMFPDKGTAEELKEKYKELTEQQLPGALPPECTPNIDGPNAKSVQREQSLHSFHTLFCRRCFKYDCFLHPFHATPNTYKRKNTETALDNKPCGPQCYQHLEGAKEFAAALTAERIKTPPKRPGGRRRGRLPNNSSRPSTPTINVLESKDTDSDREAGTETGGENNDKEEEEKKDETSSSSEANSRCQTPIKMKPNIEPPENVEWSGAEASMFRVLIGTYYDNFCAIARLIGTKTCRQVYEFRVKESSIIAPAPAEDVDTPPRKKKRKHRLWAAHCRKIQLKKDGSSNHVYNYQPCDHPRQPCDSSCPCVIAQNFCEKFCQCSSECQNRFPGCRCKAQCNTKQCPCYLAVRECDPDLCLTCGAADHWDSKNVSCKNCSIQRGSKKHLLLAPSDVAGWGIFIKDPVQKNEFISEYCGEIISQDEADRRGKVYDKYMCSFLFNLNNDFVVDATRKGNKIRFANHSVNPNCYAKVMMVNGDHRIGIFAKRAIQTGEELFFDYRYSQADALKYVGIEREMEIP
EZH2, sequence (O75530 whole entry partner, species assumed): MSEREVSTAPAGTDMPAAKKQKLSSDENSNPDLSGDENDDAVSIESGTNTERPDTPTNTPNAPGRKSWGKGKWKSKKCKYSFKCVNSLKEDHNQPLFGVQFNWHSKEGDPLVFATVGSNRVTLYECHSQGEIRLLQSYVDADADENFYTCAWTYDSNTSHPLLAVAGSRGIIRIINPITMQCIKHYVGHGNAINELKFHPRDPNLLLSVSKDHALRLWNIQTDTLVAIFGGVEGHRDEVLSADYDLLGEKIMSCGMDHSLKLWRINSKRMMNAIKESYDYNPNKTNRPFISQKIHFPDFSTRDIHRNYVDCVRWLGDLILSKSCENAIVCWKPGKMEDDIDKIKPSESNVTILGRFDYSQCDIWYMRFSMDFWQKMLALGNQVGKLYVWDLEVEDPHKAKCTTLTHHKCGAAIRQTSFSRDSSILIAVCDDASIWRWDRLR
EZH2, sequence (Q15022 whole entry partner, species assumed): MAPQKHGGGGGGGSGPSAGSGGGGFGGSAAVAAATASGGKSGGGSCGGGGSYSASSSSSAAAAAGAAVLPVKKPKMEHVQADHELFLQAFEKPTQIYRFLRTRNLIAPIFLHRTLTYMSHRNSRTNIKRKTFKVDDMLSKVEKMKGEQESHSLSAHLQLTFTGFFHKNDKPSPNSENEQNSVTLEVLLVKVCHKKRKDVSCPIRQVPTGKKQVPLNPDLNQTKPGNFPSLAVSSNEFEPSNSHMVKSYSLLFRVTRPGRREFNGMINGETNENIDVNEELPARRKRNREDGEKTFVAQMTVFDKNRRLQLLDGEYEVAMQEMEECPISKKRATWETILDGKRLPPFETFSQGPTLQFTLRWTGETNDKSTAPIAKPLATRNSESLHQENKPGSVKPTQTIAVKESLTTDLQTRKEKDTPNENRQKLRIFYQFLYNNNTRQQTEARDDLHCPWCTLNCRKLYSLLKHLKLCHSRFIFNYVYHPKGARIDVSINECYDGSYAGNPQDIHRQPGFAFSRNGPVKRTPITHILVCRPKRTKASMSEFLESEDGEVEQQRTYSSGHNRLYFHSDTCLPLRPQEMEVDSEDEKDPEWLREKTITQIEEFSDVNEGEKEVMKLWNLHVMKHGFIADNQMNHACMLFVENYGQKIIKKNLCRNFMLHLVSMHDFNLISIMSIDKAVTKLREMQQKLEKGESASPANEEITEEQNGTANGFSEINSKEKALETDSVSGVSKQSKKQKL
EZH1, sequence (Q92800 whole entry, species assumed): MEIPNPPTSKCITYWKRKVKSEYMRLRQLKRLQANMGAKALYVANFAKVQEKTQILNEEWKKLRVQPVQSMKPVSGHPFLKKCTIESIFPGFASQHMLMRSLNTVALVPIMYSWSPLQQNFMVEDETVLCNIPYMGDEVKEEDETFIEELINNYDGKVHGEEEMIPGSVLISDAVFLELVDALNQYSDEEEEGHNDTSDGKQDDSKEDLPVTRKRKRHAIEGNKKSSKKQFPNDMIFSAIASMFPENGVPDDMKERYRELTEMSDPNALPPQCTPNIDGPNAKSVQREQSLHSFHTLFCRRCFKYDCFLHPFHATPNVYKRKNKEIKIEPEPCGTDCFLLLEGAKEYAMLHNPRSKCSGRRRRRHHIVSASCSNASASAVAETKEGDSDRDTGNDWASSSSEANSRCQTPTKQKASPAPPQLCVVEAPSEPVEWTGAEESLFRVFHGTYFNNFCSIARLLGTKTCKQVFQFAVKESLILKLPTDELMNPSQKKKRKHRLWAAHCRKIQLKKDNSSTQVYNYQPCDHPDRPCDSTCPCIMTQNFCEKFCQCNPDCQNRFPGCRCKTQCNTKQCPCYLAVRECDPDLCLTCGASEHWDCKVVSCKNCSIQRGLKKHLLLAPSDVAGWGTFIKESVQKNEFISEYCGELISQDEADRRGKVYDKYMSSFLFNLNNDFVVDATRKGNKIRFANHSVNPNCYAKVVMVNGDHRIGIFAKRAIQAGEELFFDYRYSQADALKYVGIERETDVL
EZH1, sequence (O75530 whole entry partner, species assumed): as the sequence (O75530 whole entry partner, species assumed) above
EZH1, sequence (Q15022 whole entry partner, species assumed): as the sequence (Q15022 whole entry partner, species assumed) above

As a reminder, the inhibition is the percentage by which the read-out fell short of the control. As for `CSc1cc(C)[nH]c(=O)c1CNC(=O)c1cc(-c2cnc(N3CCCCC3)nc2)c2c(c1C)OC(C)([C@H]1CC[C@H](N(C)C)CC1)O2` (relative stereo) [Compound 4, 2-(trans-4-(dimethylamino)cyclohexyl)-2,4-dimethyl-N-((6-methyl-4-(methylthio)-2-oxo-1,2-dihydropyridin-3-yl)methyl)-7-(2-(piperidin-1-yl)pyrimidin-5-yl)benzo[d][1,3]dioxole-5-carboxamide], the inhibition at 1 µM was no less than 70% in the assay with Lovo cells; no more than 30% in the assay on MKN-45 cells; 30 to 70% with G401 cells; 30 to 70% in the assay with SW-13 cells; no more than 30% in the assay with MIA-PaCa-2 cells; no more than 30% in the assay on NCI-H1299 cells. In addition, the values for the inhibition at 0.005 µM against EZH1 and against EZH2 were 74% and 77.4%, respectively.

As for `CSc1cc(C)[nH]c(=O)c1CNC(=O)c1cc(-c2cnc(N(C)C)nc2)c2c(c1C)OC(C)(C1CCN(CC(F)(F)F)CC1)O2` (centres unmarked) [Compound 35, 7-(2-(dimethylamino)pyrimidin-5-yl)-2,4-dimethyl-N-((6-methyl-4-(methylthio)-2-oxo-1,2-dihydropyridin-3-yl)methyl)-2-(1-(2,2,2-trifluoroethyl)piperidin-4-yl)benzo[d][1,3]dioxole-5-carboxamide], the inhibition at 1 µM in the assay on Lovo cells was no less than 70%; with MKN-45 cells, no more than 30%; in the assay on G401 cells, no less than 70%; in the assay on SW-13 cells, no more than 30%; in the assay with MIA-PaCa-2 cells it was no more than 30%; with NCI-H1299 cells, no more than 30%. Also, the inhibition at 0.005 µM is 67.7% against EZH1 and 94% against EZH2.

Turning to `CSc1cc(C)[nH]c(=O)c1CNC(=O)c1cc(-c2cnc(N3C[C@@H](C)O[C@@H](C)C3)nc2)c2c(c1C)OC(C)([C@H]1CC[C@H](N(C)C)CC1)O2` (some centres unmarked) [Compound 2], the inhibition at 1 µM with Lovo cells was 30 to 70%; with MKN-45 cells it was no more than 30%; with G401 cells it was 30 to 70%; with SW-13 cells, 30 to 70%; in the assay on MIA-PaCa-2 cells, no more than 30%; in the assay with NCI-H1299 cells, no more than 30%. The inhibition at 0.005 µM at EZH1 was 82%; at EZH2, 92.9%.

`CSc1cc(C)[nH]c(=O)c1CNC(=O)c1cc(-c2ccc(N3C[C@@H](C)O[C@@H](C)C3)nc2)c2c(c1C)OC(C)([C@H]1CC[C@H](N3CC(OCC(F)F)C3)CC1)O2` (stereo partly drawn) [Compound 103, 2-(trans-4-(3-(2,2-difluoroethoxy)azetidin-1-yl)cyclohexyl)-7-(6-((2S,6R)-2,6-dimethylmorpholino)pyridin-3-yl)-2,4-dimethyl-N-((6-methyl-4-(methylthio)-2-oxo-1,2-dihydropyridin-3-yl)methyl)benzo[d][1,3]dioxole-5-carboxamide]: the inhibition at 1 µM with Lovo cells is no less than 70%; in the assay with G401 cells, no less than 70%; in the assay with NCI-H1299 cells, no more than 30%. In the assay with MKN-45 cells (1 µM), the “% inhibition rate MKN -45” value was “+++ (+++: ≥70%)”. In addition, the inhibition at 0.005 µM on EZH1 is 10.7%; on EZH2, 27.1%. In addition, the inhibition at 0.01 µM was found to be 20.5% at EZH1 and 72.5% on EZH2. Moreover, the “% inhibition rate SW-13” value in the assay with SW-13 cells (1 µM) is reported as “+++ (+++: ≥70%)”. Also, the “% inhibition rate MIA-Paca2” value in the assay on MIA-PaCa-2 cells (1 µM) is “+++ (+++: ≥70%)”.

As to `CSc1cc(C)[nH]c(=O)c1CNC(=O)c1cc(-c2ccsc2)c2c(c1C)OC(C)(C1CCC(N(C)C)CC1)O2` (centres unmarked) [Compound 42, 2-(4-(dimethylamino)cyclohexyl)-2,4-dimethyl-N-((6-methyl-4-(methylthio)-2-oxo-1,2-dihydropyridin-3-yl)methyl)-7-(thiophen-3-yl)benzo[d][1,3]dioxole-5-carboxamide], the inhibition at 1 µM in the assay with Lovo cells was no less than 70%; in the assay on MKN-45 cells, 30 to 70%; with G401 cells it was no less than 70%; in the assay on SW-13 cells, 30 to 70%; with MIA-PaCa-2 cells, no more than 30%; with NCI-H1299 cells, 30 to 70%. In addition, the inhibition at 0.005 µM against EZH1 was 59.6%; against EZH2 it was 90.5%.

For the compound `CSc1cc(C)[nH]c(=O)c1CNC(=O)c1cc(-c2ccsc2)c2c(c1C)OC(C)([C@H]1CC[C@H](N(C)C)CC1)O2` (relative stereo) [Compound 11, 2-(trans-4-(dimethylamino)cyclohexyl)-2,4-dimethyl-N-((6-methyl-4-(methylthio)-2-oxo-1,2-dihydropyridin-3-yl)methyl)-7-(thiophen-3-yl)benzo[d][1,3]dioxole-5-carboxamide], the inhibition at 1 µM in the assay with Lovo cells was no less than 70%; with MKN-45 cells, no more than 30%; in the assay with G401 cells, 30 to 70%; in the assay on SW-13 cells, 30 to 70%; in the assay on MIA-PaCa-2 cells it was no more than 30%; in the assay on NCI-H1299 cells, 30 to 70%. In addition, the inhibition at 0.005 µM against EZH1 came to 82.9%; on EZH2, 98.9%.

Turning to `CSc1cc(C)[nH]c(=O)c1CNC(=O)c1cc(-c2ccc(N3CCCCC3)nc2)c2c(c1C)OC(C)(C1CCN(CC(F)(F)F)CC1)O2` (centres unmarked) [Compound 91, 2,4-dimethyl-N-((6-methyl-4-(methylthio)-2-oxo-1,2-dihydropyridin-3-yl)methyl)-7-(6-(piperidin-1-yl)pyridin-3-yl)-2-(1-(2,2,2-trifluoroethyl)piperidin-4-yl)benzo[d][1,3]dioxole-5-carboxamide], the inhibition at 1 µM in the assay with Lovo cells is no less than 70%; with MKN-45 cells, no more than 30%; in the assay with G401 cells, 30 to 70%; in the assay with SW-13 cells it was no more than 30%; in the assay on MIA-PaCa-2 cells, no more than 30%; with NCI-H1299 cells, no more than 30%. Besides, the inhibition at 0.005 µM against EZH1 is 24.5%; at EZH2, 47.4%. Besides, the figures for the inhibition at 0.01 µM on EZH1 and against EZH2 were 41% and 71.6%, respectively.

With `CSc1cc(C)[nH]c(=O)c1CNC(=O)c1cc(-c2ccc(N3C[C@@H](C)O[C@@H](C)C3)nc2)c2c(c1C)OC(C)(C1CCN(C(=O)C(F)(F)F)CC1)O2` (single isomer, unassigned) [Compound 59], the inhibition at 1 µM in the assay with Lovo cells was no less than 70%; with MKN-45 cells it was 30 to 70%; in the assay with SW-13 cells it was 30 to 70%; with MIA-PaCa-2 cells, no more than 30%; with NCI-H1299 cells, 30 to 70%. The inhibition at 0.005 µM is 42.2% against EZH1 and 98.5% at EZH2. Further, the values for the inhibition at 0.01 µM against EZH1 and on EZH2 were 5.7% and 99.5%, respectively. In the assay with G401 cells (1 µM), the “% inhibition rate G401” value was “+++ (+++: ≥70%)”.

For the compound `CCCOCCN(C)[C@H]1CC[C@H](C2(C)Oc3c(-c4ccc(N5C[C@@H](C)O[C@@H](C)C5)nc4)cc(C(=O)NCc4c(SC)cc(C)[nH]c4=O)c(C)c3O2)CC1` (stereo partly drawn) [Compound 30, 7-(6-((2S,6R)-2,6-dimethylmorpholino)pyridin-3-yl)-2,4-dimethyl-2-(trans-4-(methyl(2-propoxyethyl)amino)cyclohexyl)-N-((6-methyl-4-(methylthio)-2-oxo-1,2-dihydropyridin-3-yl)methyl)benzo[d][1,3]dioxole-5-carboxamide], the inhibition at 1 µM was no less than 70% in the assay with Lovo cells; 30 to 70% in the assay with MKN-45 cells; 30 to 70% in the assay on G401 cells; 30 to 70% with SW-13 cells; no more than 30% with MIA-PaCa-2 cells; no more than 30% with NCI-H1299 cells. The inhibition at 0.005 µM at EZH1 is 80.4%; against EZH2, 83.1%.

With `CSc1cc(C)[nH]c(=O)c1CNC(=O)c1cc(-c2ccc(CN3CCOCC3)cc2)c2c(c1C)OC(C)([C@H]1CC[C@H](N(C)C)CC1)O2` (relative stereo) [Compound 6, 2-(trans-4-(dimethylamino)cyclohexyl)-2,4-dimethyl-N-((6-methyl-4-(methylthio)-2-oxo-1,2-dihydropyridin-3-yl)methyl)-7-(4-(morpholinomethyl)phenyl)benzo[d][1,3]dioxole-5-carboxamide], the inhibition at 1 µM was 30 to 70% with Lovo cells; no more than 30% with MKN-45 cells; 30 to 70% in the assay on G401 cells; 30 to 70% in the assay with SW-13 cells; no more than 30% in the assay with MIA-PaCa-2 cells; no more than 30% with NCI-H1299 cells. Also, the inhibition at 0.005 µM against EZH1 was determined as 86.7%; on EZH2, 98.2%.
